Laboratory results taken from patent publication US20250382344A1, “Soluble GLP1/GIP/NPY2 Receptor Triple Agonists” (Boehringer Ingelheim International GmH, priority 2024, published 2025).
Read-outs that look alike come from different tables or passages of the source.

Columns and labels:
hGLP1R = biological target: T1, hGLP1R (Homo sapiens, UniProt P43220); experiment: hGLP1R CreLuc assay in 0.5% and 100% plasma (HEK-293 CRE-luciferase reporter cells); type: cell-based; conditions: HEK-293 reporter cells
T1 construct: expressed in transfected cells; host or cells: HEK-293 CRE-luciferase reporter cells

hGIPR = biological target: T2, hGIPR (Homo sapiens, UniProt P48546); experiment: hGIPR CreLuc assay in 0.5% and 100% plasma (CHO CRE-luciferase reporter cells); type: cell-based
T2 construct: expressed in transfected cells; host or cells: CHO CRE-luciferase reporter cells
T2 sequence (P48546 22-466): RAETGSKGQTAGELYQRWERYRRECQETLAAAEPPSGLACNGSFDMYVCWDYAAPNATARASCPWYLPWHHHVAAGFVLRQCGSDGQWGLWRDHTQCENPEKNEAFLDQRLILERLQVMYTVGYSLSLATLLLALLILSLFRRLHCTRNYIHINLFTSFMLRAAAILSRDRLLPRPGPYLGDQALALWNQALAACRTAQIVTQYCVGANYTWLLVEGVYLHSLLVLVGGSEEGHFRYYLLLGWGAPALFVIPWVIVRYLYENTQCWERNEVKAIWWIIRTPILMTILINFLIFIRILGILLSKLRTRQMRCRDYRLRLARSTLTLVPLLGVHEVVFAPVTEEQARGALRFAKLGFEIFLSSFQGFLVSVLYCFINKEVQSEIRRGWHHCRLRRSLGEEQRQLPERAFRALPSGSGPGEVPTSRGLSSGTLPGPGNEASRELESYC

[1] = Solubility in 0.1 M phosphate buffer at pH 7; type: physicochemical; conditions: 0.1 M phosphate buffer at pH 7, 10 mg/mL final peptide concentration, shaking 2 hours at room temperature, peptides as TFA-salts; measured sample pH 6.5-7.0
[2] = 0.5% human plasma, read-out: hGLP1R 0.5% hP
[3] = 100% human plasma, read-out: hGLP1R 100% hP
[4] = 0.5% human plasma, read-out: hGIPR 0.5% hP
[5] = 100% human plasma, read-out: hGIPR 100% hP

T1 sequence (P43220 24-463): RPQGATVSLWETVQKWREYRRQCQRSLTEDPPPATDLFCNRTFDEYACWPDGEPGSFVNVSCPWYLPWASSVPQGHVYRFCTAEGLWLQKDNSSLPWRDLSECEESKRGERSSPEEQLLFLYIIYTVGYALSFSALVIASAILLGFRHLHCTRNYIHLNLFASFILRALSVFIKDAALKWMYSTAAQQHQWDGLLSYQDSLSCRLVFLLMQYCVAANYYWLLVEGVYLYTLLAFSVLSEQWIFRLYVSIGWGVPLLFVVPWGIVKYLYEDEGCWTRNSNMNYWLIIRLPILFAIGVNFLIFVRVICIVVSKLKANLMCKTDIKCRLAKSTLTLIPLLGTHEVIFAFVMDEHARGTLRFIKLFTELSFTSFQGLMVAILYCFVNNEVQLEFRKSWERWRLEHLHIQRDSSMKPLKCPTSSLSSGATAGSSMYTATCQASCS

EC50 (hGLP1R; [2]) | EC50 (hGLP1R; [3]) | EC50 (hGIPR; [4]) | solubility at 2 h [1] | EC50 (hGIPR; [5]) | Structure (SMILES)
0.1 nM | 1 nM | 0.7 nM | 8.9 mg/mL | – | CC[C@H](C)[C@H](NC(=O)[C@H](CCCCN)NC(=O)[C@H](CC(=O)O)NC(=O)[C@H](CC(C)C)NC(=O)C(C)(C)NC(=O)[C@@H](NC(=O)[C@H](CO)NC(=O)[C@H](Cc1ccc(O)cc1)NC(=O)[C@H](CC(=O)O)NC(=O)[C@H](CO)NC(=O)[C@@H](NC(=O)[C@H](Cc1ccccc1)NC(=O)[C@@H](NC(=O)CNC(=O)[C@H](CCC(=O)O)NC(=O)C(C)(C)NC(=O)[C@@H](N)Cc1ccc(O)cc1)[C@@H](C)O)[C@@H](C)O)[C@@H](C)CC)C(=O)N[C@@H](C)C(=O)N[C@@H](CCC(N)=O)C(=O)NC(C)(C)C(=O)N[C@@H](C)C(=O)N[C@@H](Cc1ccccc1)C(=O)N[C@H](C(=O)N[C@@H](CCCNC(=N)N)C(=O)N[C@@H](Cc1c[nH]cn1)C(=O)N[C@@H](CC(C)C)C(=O)N[C@H](C(=O)N[C@@H](CC(N)=O)C(=O)N[C@@H](CCCCNC(=O)[C@@H](N)CCCCNC(=O)CC[C@H](NC(=O)CC[C@H](NC(=O)CC[C@H](NC(=O)CC[C@H](NC(=O)CC[C@H](NC(=O)CC[C@H](NC(=O)CCCCCCCCCCCCCCCCC(=O)O)C(=O)O)C(=O)O)C(=O)O)C(=O)O)C(=O)O)C(=O)O)C(=O)NC(C)(C)C(=O)N[C@H](C(=O)N[C@@H](CCCNC(=N)N)C(=O)N[C@@H](CCC(N)=O)C(=O)N[C@@H](CCCNC(=N)N)C(=O)N[C@@H](Cc1ccc(O)cc1)C(N)=O)[C@@H](C)O)[C@@H](C)CC)C(C)C [Compound 33, Y-Aib-E-G-T-F-T-S-D-Y-S-I-Aib-L-D-K-I-A-Q-Aib-A-F-V-R-H-L-I-N-K(1,3)-Aib-T-R-Q-R-Y-NH2.C18DA-gGlu-gGlu-gGlu-gGlu-gGlu-gGlu-eLys(1,2)]
0.3 nM | – | 0.2 nM | 10.6 mg/mL | – | CC[C@H](C)[C@H](NC(=O)[C@H](CC(C)C)NC(=O)[C@H](Cc1c[nH]cn1)NC(=O)[C@H](CCCNC(=N)N)NC(=O)[C@@H](NC(=O)[C@H](Cc1ccccc1)NC(=O)[C@H](C)NC(=O)C(C)(C)NC(=O)[C@H](CCC(N)=O)NC(=O)[C@H](C)NC(=O)[C@H](CCC(N)=O)NC(=O)[C@H](CCCCN)NC(=O)[C@H](CCC(=O)O)NC(=O)[C@H](CC(C)C)NC(=O)C(C)(C)NC(=O)[C@@H](NC(=O)[C@H](CO)NC(=O)[C@H](Cc1ccc(O)cc1)NC(=O)[C@H](CC(=O)O)NC(=O)[C@H](CO)NC(=O)[C@@H](NC(=O)[C@H](Cc1ccccc1)NC(=O)[C@@H](NC(=O)CNC(=O)[C@H](CCC(=O)O)NC(=O)C(C)(C)NC(=O)[C@@H](N)Cc1ccc(O)cc1)[C@@H](C)O)[C@@H](C)O)[C@@H](C)CC)C(C)C)C(=O)N[C@@H](CC(N)=O)C(=O)N[C@@H](CCCCNC(=O)CC[C@H](NC(=O)CC[C@H](NC(=O)[C@@H](N)CCCCNC(=O)CC[C@H](NC(=O)CC[C@H](NC(=O)CC[C@H](NC(=O)CC[C@H](NC(=O)CCCCCCCCCCCCCCCCC(=O)O)C(=O)O)C(=O)O)C(=O)O)C(=O)O)C(=O)O)C(=O)O)C(=O)NC(C)(C)C(=O)N[C@H](C(=O)N[C@@H](CCCNC(=N)N)C(=O)N[C@@H](CCC(N)=O)C(=O)N[C@@H](CCCNC(=N)N)C(=O)N[C@@H](Cc1ccc(O)cc1)C(N)=O)[C@@H](C)O [Compound 34, Y-Aib-E-G-T-F-T-S-D-Y-S-I-Aib-L-E-K-Q-A-Q-Aib-A-F-V-R-H-L-I-N-K(1,3)-Aib-T-R-Q-R-Y-NH2.C18DA-gGlu-gGlu-gGlu-gGlu-eLys-gGlu-gGlu(1,2)]
0.9 nM | 5 nM | 0.3 nM | 4 mg/mL | 7.1 nM | CC[C@H](C)[C@H](NC(=O)[C@H](CC(C)C)NC(=O)[C@H](Cc1c[nH]cn1)NC(=O)[C@H](CCCNC(=N)N)NC(=O)[C@@H](NC(=O)[C@H](Cc1ccccc1)NC(=O)[C@H](C)NC(=O)C(C)(C)NC(=O)[C@H](CCC(N)=O)NC(=O)[C@H](C)NC(=O)[C@H](CCC(N)=O)NC(=O)[C@H](CCCCN)NC(=O)[C@H](CCC(=O)O)NC(=O)[C@H](CC(C)C)NC(=O)C(C)(C)NC(=O)[C@@H](NC(=O)[C@H](CO)NC(=O)[C@H](Cc1ccc(O)cc1)NC(=O)[C@H](CC(=O)O)NC(=O)[C@H](CO)NC(=O)[C@@H](NC(=O)[C@H](Cc1ccccc1)NC(=O)[C@@H](NC(=O)CNC(=O)[C@H](CCC(=O)O)NC(=O)C(C)(C)NC(=O)[C@@H](N)Cc1ccc(O)cc1)[C@@H](C)O)[C@@H](C)O)[C@@H](C)CC)C(C)C)C(=O)N[C@@H](CC(N)=O)C(=O)N[C@@H](CCCCNC(=O)CC[C@H](NC(=O)CC[C@H](NC(=O)CC[C@H](NC(=O)CC[C@H](NC(=O)CC[C@H](NC(=O)CCCCCCCCCCCCCCCCC(=O)O)C(=O)O)C(=O)O)C(=O)O)C(=O)O)C(=O)O)C(=O)N[C@H](C(=O)N[C@H](C(=O)N[C@@H](CCCNC(=N)N)C(=O)N[C@@H](CCC(N)=O)C(=O)N[C@@H](CCCNC(=N)N)C(=O)N[C@@H](Cc1ccc(O)cc1)C(N)=O)[C@@H](C)O)[C@@H](C)CC [Compound 41, Y-Aib-E-G-T-F-T-S-D-Y-S-I-Aib-L-E-K-Q-A-Q-Aib-A-F-V-R-H-L-I-N-K(1,3)-I-T-R-Q-R-Y-NH2.C18DA-gGlu-gGlu-gGlu-gGlu-gGlu(1,2)]
0.9 nM | 14.5 nM | 0.2 nM | 4.3 mg/mL | – | CC[C@H](C)[C@H](NC(=O)[C@H](CC(C)C)NC(=O)[C@H](Cc1c[nH]cn1)NC(=O)[C@H](CCCNC(=N)N)NC(=O)[C@@H](NC(=O)[C@H](Cc1ccccc1)NC(=O)[C@H](C)NC(=O)C(C)(C)NC(=O)[C@H](CCC(N)=O)NC(=O)[C@H](C)NC(=O)[C@H](CCC(N)=O)NC(=O)[C@H](CCC(N)=O)NC(=O)[C@H](CCC(=O)O)NC(=O)[C@H](CC(C)C)NC(=O)C(C)(C)NC(=O)[C@@H](NC(=O)[C@H](CO)NC(=O)[C@H](Cc1ccc(O)cc1)NC(=O)[C@H](CC(=O)O)NC(=O)[C@H](CO)NC(=O)[C@@H](NC(=O)[C@H](Cc1ccccc1)NC(=O)[C@@H](NC(=O)CNC(=O)[C@H](CCC(=O)O)NC(=O)C(C)(C)NC(=O)[C@@H](N)Cc1ccc(O)cc1)[C@@H](C)O)[C@@H](C)O)[C@@H](C)CC)C(C)C)C(=O)N[C@@H](CC(N)=O)C(=O)N[C@@H](CCCCNC(=O)CC[C@H](NC(=O)CC[C@H](NC(=O)CC[C@H](NC(=O)CC[C@H](NC(=O)CC[C@H](NC(=O)CCCCCCCCCCCCCCCCC(=O)O)C(=O)O)C(=O)O)C(=O)O)C(=O)O)C(=O)O)C(=O)NC(C)(C)C(=O)N[C@H](C(=O)N[C@@H](CCCNC(=N)N)C(=O)N[C@@H](CCC(N)=O)C(=O)N[C@@H](CCCNC(=N)N)C(=O)N[C@@H](Cc1ccc(O)cc1)C(N)=O)[C@@H](C)O [Compound 42, Y-Aib-E-G-T-F-T-S-D-Y-S-I-Aib-L-E-Q-Q-A-Q-Aib-A-F-V-R-H-L-I-N-K(1,3)-Aib-T-R-Q-R-Y-NH2.C18DA-gGlu-gGlu-gGlu-gGlu-gGlu(1,2)]
0.6 nM | 3 nM | 0.1 nM | 4.3 mg/mL | 2.8 nM | CC[C@H](C)[C@H](NC(=O)[C@H](CC(C)C)NC(=O)[C@H](Cc1c[nH]cn1)NC(=O)[C@H](CCCNC(=N)N)NC(=O)[C@@H](NC(=O)[C@H](Cc1ccccc1)NC(=O)[C@H](C)NC(=O)C(C)(C)NC(=O)[C@H](CCC(N)=O)NC(=O)[C@H](C)NC(=O)[C@H](CCC(N)=O)NC(=O)[C@H](CCCCN)NC(=O)[C@H](CCC(=O)O)NC(=O)[C@H](CC(C)C)NC(=O)C(C)(C)NC(=O)[C@@H](NC(=O)[C@H](CO)NC(=O)[C@H](Cc1ccc(O)cc1)NC(=O)[C@H](CC(=O)O)NC(=O)[C@H](CO)NC(=O)[C@@H](NC(=O)[C@H](Cc1ccccc1)NC(=O)[C@@H](NC(=O)CNC(=O)[C@H](CCC(=O)O)NC(=O)C(C)(C)NC(=O)[C@@H](N)Cc1ccc(O)cc1)[C@@H](C)O)[C@@H](C)O)[C@@H](C)CC)C(C)C)C(=O)N[C@@H](CC(N)=O)C(=O)N[C@@H](CCCCNC(=O)[C@@H](N)CCCCNC(=O)CC[C@H](NC(=O)CC[C@H](NC(=O)CC[C@H](NC(=O)CC[C@H](NC(=O)CC[C@H](NC(=O)CC[C@H](NC(=O)CCCCCCCCCCCCCCCCC(=O)O)C(=O)O)C(=O)O)C(=O)O)C(=O)O)C(=O)O)C(=O)O)C(=O)NC(C)(C)C(=O)N[C@H](C(=O)N[C@@H](CCCNC(=N)N)C(=O)N[C@@H](CCC(N)=O)C(=O)N(C)[C@@H](CCCNC(=N)N)C(=O)N[C@@H](Cc1ccc(O)cc1)C(N)=O)[C@@H](C)O [Compound 43, Y-Aib-E-G-T-F-T-S-D-Y-S-I-Aib-L-E-K-Q-A-Q-Aib-A-F-V-R-H-L-I-N-K(1,3)-Aib-T-R-Q-NMeR-Y-NH2.C18DA-gGlu-gGlu-gGlu-gGlu-gGlu-gGlu-eLys(1,2)]
